Measurements from PubChem BioAssay (NCI).
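In this assay, cells in 96-well plates receive the compound at five concentrations for 48 hours. Endpoints are linearly interpolated between the surrounding concentrations. TGI marks complete inhibition of growth.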

Columns and labels:
Experiment in all cases: growth of human tumour cells (NCI), 48 h
U251 CNS = system: U251 CNS
HT29 colon = system: HT29 colon
SK-MEL-5 melanoma = system: SK-MEL-5 melanoma
LOX IMVI melanoma = system: LOX IMVI melanoma
UO-31 renal = system: UO-31 renal
RPMI-8226 leukemia = system: RPMI-8226 leukemia
SK-MEL-28 melanoma = system: SK-MEL-28 melanoma
SF-268 CNS = system: SF-268 CNS
BT-549 breast = system: BT-549 breast
A498 renal = system: A498 renal
HL-60(TB) leukemia = system: HL-60(TB) leukemia
SF-539 CNS = system: SF-539 CNS
NCI/ADR-RES ovarian = system: NCI/ADR-RES ovarian
SK-OV-3 ovarian = system: SK-OV-3 ovarian
K-562 leukemia = system: K-562 leukemia
SR leukemia = system: SR leukemia
SN12C renal = system: SN12C renal
A549 NSCLC = system: A549 NSCLC
OVCAR-4 ovarian = system: OVCAR-4 ovarian
MDA-N = system: MDA-N
SF-295 CNS = system: SF-295 CNS
UACC-62 melanoma = system: UACC-62 melanoma
M14 melanoma = system: M14 melanoma
PC-3 prostate = system: PC-3 prostate
OVCAR-3 ovarian = system: OVCAR-3 ovarian
SK-MEL-2 melanoma = system: SK-MEL-2 melanoma
HOP-62 NSCLC = system: HOP-62 NSCLC
OVCAR-5 ovarian = system: OVCAR-5 ovarian
SNB-75 CNS = system: SNB-75 CNS
KM12 colon = system: KM12 colon
NCI-H460 lung = system: NCI-H460 lung
COLO 205 colon = system: COLO 205 colon
DU-145 prostate = system: DU-145 prostate
NCI-H23 lung = system: NCI-H23 lung
ACHN renal = system: ACHN renal
HCC-2998 colon = system: HCC-2998 colon
SW-620 colon = system: SW-620 colon
SNB-19 CNS = system: SNB-19 CNS
HS 578T breast = system: HS 578T breast
MDA-MB-435 = system: MDA-MB-435
UACC-257 melanoma = system: UACC-257 melanoma
MALME-3M melanoma = system: MALME-3M melanoma
786-0 renal = system: 786-0 renal
MCF7 breast = system: MCF7 breast
EKVX NSCLC = system: EKVX NSCLC
NCI-H226 lung = system: NCI-H226 lung
TK-10 renal = system: TK-10 renal
HCT-15 colon = system: HCT-15 colon
HCT-116 colon = system: HCT-116 colon
CCRF-CEM leukemia = system: CCRF-CEM leukemia
MDA-MB-231 breast = system: MDA-MB-231 breast
OVCAR-8 ovarian = system: OVCAR-8 ovarian
RXF 393 renal = system: RXF 393 renal
T-47D breast = system: T-47D breast
HOP-92 NSCLC = system: HOP-92 NSCLC
NCI-H522 lung = system: NCI-H522 lung
IGROV1 ovarian = system: IGROV1 ovarian
MOLT-4 leukemia = system: MOLT-4 leukemia
CAKI-1 renal = system: CAKI-1 renal

Measured: TGI

Cc1ccc(S(=O)(=O)N(c2ccccc2F)C2CCCCC2O)cc1 (stereo not drawn)
48.5 µM: MDA-MB-435 | MCF7 breast
93.7 µM: SK-MEL-2 melanoma
96.7 µM: DU-145 prostate
56.9 µM: SK-MEL-5 melanoma
5.64 µM: UACC-257 melanoma
50.1 µM: MDA-N
> 100 µM: U251 CNS | HT29 colon | LOX IMVI melanoma | UO-31 renal | RPMI-8226 leukemia | SK-MEL-28 melanoma | SF-268 CNS | A498 renal | HL-60(TB) leukemia | SF-539 CNS | NCI/ADR-RES ovarian | K-562 leukemia | SN12C renal | A549 NSCLC | OVCAR-4 ovarian | SF-295 CNS | UACC-62 melanoma | M14 melanoma | PC-3 prostate | HOP-62 NSCLC | OVCAR-5 ovarian | KM12 colon | NCI-H460 lung | NCI-H23 lung | ACHN renal | HCC-2998 colon | SW-620 colon | SNB-19 CNS | HS 578T breast | MALME-3M melanoma | 786-0 renal | EKVX NSCLC | NCI-H226 lung | TK-10 renal | HCT-15 colon | HCT-116 colon | CCRF-CEM leukemia | MDA-MB-231 breast | OVCAR-8 ovarian
88.5 µM: SNB-75 CNS
61.8 µM: BT-549 breast
51.8 µM: SR leukemia
64 µM: SK-OV-3 ovarian
71.3 µM: COLO 205 colon
66.9 µM: OVCAR-3 ovarian

COc1ccc(NC(=O)C2=C(SC)C(C#N)C(=O)N=C2N)cc1 (stereo not drawn)
8.57 µM: KM12 colon
69.8 µM: HOP-92 NSCLC
> 100 µM: U251 CNS | HT29 colon | RXF 393 renal | SK-MEL-5 melanoma | LOX IMVI melanoma | UO-31 renal | RPMI-8226 leukemia | SK-MEL-28 melanoma | SF-268 CNS | T-47D breast | BT-549 breast | A498 renal | HL-60(TB) leukemia | SF-539 CNS | SK-OV-3 ovarian | K-562 leukemia | SR leukemia | SN12C renal | A549 NSCLC | IGROV1 ovarian | OVCAR-4 ovarian | MDA-N | SF-295 CNS | UACC-62 melanoma | M14 melanoma | PC-3 prostate | OVCAR-3 ovarian | SK-MEL-2 melanoma | HOP-62 NSCLC | OVCAR-5 ovarian | MOLT-4 leukemia | NCI-H460 lung | COLO 205 colon | DU-145 prostate | NCI-H23 lung | ACHN renal | HCC-2998 colon | SW-620 colon | CAKI-1 renal | SNB-19 CNS | HS 578T breast | MDA-MB-435 | UACC-257 melanoma | 786-0 renal | MCF7 breast | EKVX NSCLC | NCI-H226 lung | TK-10 renal | HCT-15 colon | HCT-116 colon | CCRF-CEM leukemia | MDA-MB-231 breast
32.1 µM: NCI-H522 lung
76.8 µM: MALME-3M melanoma
